Assay [1] deals with human ACTA2 gene promoter luciferase reporter in NIH3T3 cells. The assay can be described thus: NIH3T3 Acta2-promoter driven-luciferase assay. The note with it: NIH3T3, 24 h, NIH3T3 cells, plus TGFβ1 for 24 hr; read-out: NIH3T3 Acta2-luc, IC50. The assay is classed as cell-based. The gist of the method:
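NIH3T3 cells stably carrying a human ACTA2 promoter (−1000-1 bp)-luciferase reporter, grown to confluence, treated 24 hr with compound plus TGFβ1 at 9-point serial dilution. Luciferase read after lysis; IC50 by nonlinear regression.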

Assay [2] has as its system UUO-induced renal fibrosis in mice. In words: Unilateral ureteral obstruction (UUO)-induced renal fibrosis model. The note with it: oral 3 mg/kg BID, 6 mg/kg BID and 10 mg/kg QD, Day 10, Masson's trichrome. Type of assay: in vivo. The source says:
FIG. 11a. ROCK inhibitor is active in a mouse model of renal fibrosis. Representative images of kidney sections stained with Masson's trichrome to visualize collagen and fibrosis in mice treated with ROCK inhibitor in the ureteral obstruction (UUO) induced renal fibrosis mouse model.
FIG. 11b. Quantitation of the decrease in the interstitial fibrosis index in the histopathological analysis of the images from ROCK inhibitor and vehicle treated mice in the UUO induced renal fibrosis mouse model.
Unilateral Ureteral Obstruction (UUO)-Induced Renal Fibrosis Model in Mice
Male C57B/L6 mice were anesthetized with Isoflurane and placed in dorsal recumbency and the abdominal region was shaved and prepared for surgery with alternating scrub wipes of iodine or chlorhexidine scrub and 70% isopropyl alcohol. […] All animals were monitored closely for 3 days. […]
To assess the activity of ROCK inhibitors in modulation of additional organ fibrosis in an in vivo setting, ROCK inhibitor was tested in a UUO model of renal fibrosis. […] The animals were sacrificed on Day 10 following surgery and the extent of fibrosis was determined by histopathological analysis of fixed kidney sections stained with Masson's trichrome. […]
The improvement in the kidney fibrosis following UUO was quantitated based on the individual image scores by a pathologist blinded to the group assignments. […]

We go through one molecule from patent US11613531B2, “Inhibitors of RHO associated coiled-coil containing protein kinase” (Kadmon Corporation, LLC, priority 2017, dated 2023).

One may read the IC50 as the concentration that inhibits the measured activity by half.

SMILES strings stand for the structures.

In the case of `Clc1cnc(N2C3CCC2CNC3)nc1Nc1ccc2[nH]ncc2c1` [Example 192, N-(2-(3,8-diazabicyclo[3.2.1]octan-8-yl)-5-chloropyrimidin-4-yl)-1H-indazol-5-amine], the IC50 in assay [1] stood at 0.189 µM. In assay [2], the “amount of interstitial collagen in the obstructed kidney” value is on record as “significantly lower”.
